In ChEMBL document CHEMBL5390317, “Novel Indane-Containing NBTIs with Potent Anti-Gram-Negative Activity and Minimal hERG Inhibition” (ACS Med Chem Lett, 2023):
≈ marks a conversion by molar mass, not a printed value.

How the values were obtained:
[1] = tested on: Klebsiella pneumoniae; assay: Antibacterial activity against Klebsiella pneumoniae ATCC 10031 assessed as inhibition in bacterial growth incubated for 20 to 24 hrs by CLSI based broth microdilution method; type: functional; details: time 20-24 hrs
[2] = tested on: Pseudomonas aeruginosa; assay: Antibacterial activity against Pseudomonas aeruginosa NCTC 13437 assessed as inhibition in bacterial growth incubated for 20 to 24 hrs by CLSI based broth microdilution method; type: functional
[3] = molecular target: T1, hERG (KCNH2) (Homo sapiens, UniProt Q12809); assay: Inhibition of hERG potassium channel expressed in CHO cells at 1 uM by electrophysiological patch clamp assay relative to control; type: toxicity, cell-based; details: CHO cells expressing hERG
T1 sequence (Q12809 whole entry): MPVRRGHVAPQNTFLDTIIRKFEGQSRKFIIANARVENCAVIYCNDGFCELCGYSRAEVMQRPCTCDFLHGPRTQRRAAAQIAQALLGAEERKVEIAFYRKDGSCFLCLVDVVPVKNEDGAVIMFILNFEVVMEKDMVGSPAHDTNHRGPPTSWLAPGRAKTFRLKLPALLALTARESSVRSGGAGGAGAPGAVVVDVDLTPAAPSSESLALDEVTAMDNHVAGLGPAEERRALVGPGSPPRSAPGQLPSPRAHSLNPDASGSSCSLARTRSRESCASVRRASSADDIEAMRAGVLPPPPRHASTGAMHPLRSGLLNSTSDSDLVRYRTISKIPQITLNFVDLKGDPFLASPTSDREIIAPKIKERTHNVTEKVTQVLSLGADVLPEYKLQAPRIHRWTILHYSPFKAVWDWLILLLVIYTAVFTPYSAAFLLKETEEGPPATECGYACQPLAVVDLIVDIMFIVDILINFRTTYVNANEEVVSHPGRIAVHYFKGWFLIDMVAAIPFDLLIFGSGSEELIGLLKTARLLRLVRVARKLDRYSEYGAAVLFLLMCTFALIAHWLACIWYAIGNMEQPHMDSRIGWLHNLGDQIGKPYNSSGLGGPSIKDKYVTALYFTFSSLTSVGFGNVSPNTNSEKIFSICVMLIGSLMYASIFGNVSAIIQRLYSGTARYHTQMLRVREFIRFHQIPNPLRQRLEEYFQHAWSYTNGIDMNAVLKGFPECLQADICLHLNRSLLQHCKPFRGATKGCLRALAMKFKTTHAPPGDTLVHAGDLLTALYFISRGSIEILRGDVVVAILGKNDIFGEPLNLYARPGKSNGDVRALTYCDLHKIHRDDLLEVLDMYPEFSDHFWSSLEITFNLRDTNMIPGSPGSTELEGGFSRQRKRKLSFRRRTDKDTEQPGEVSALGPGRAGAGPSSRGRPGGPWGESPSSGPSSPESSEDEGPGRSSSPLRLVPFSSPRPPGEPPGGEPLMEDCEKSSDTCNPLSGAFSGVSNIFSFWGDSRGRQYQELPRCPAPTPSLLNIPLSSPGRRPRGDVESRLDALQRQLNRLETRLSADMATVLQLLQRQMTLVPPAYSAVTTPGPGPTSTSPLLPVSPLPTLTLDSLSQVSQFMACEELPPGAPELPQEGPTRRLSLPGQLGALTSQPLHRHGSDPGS

[4] = tested on: Klebsiella pneumoniae; assay: Antibacterial activity against Klebsiella pneumoniae ATCC BAA-2146 assessed as inhibition in bacterial growth incubated for 20 to 24 hrs by CLSI based broth microdilution method; type: functional
[5] = tested on: Acinetobacter baumannii; assay: Antibacterial activity against Acinetobacter baumannii ATCC BAA-747 assessed as inhibition in bacterial growth incubated for 20 to 24 hrs by CLSI based broth microdilution method; type: functional
[6] = molecular target: T1, hERG (KCNH2); assay: (§1) Inhibition of hERG potassium channel expressed in CHO cells by electrophysiological patch clamp assay; type: toxicity, cell-based; details: human, CHO cells expressing hERG
[7] = molecular target: Voltage-gated inwardly rectifying potassium channel KCNH2 (Homo sapiens, UniProt Q12809); assay: as §1; type: toxicity, cell-based; details: for IC20: human, cho
Chain of Voltage-gated inwardly rectifying potassium channel KCNH2 (Q12809 whole entry): as above

[8] = tested on: Escherichia coli; assay: Antibacterial activity against Escherichia coli ATCC 35218 assessed as inhibition in bacterial growth incubated for 20 to 24 hrs by CLSI based broth microdilution method; type: functional
[9] = molecular target: DNA gyrase (Escherichia coli, UniProt P0AES4+P0AES6); assay: Inhibition of Escherichia coli DNA gyrase incubated for 80 mins by Transcreener ADP2 FI assay; type: protein-complex assay
[10] = tested on: Staphylococcus aureus; assay: Antibacterial activity against Staphylococcus aureus ATCC BAA-1556 assessed as inhibition in bacterial growth incubated for 20 to 24 hrs by CLSI based broth microdilution method; type: functional
[11] = tested on: Staphylococcus aureus; assay: Antibacterial activity against Staphylococcus aureus ATCC 29213 assessed as inhibition in bacterial growth incubated for 20 to 24 hrs by CLSI based broth microdilution method; type: functional; details: Staphylococcus aureus, ATCC 29213; time 20-24 hrs; read-out: MIC
[12] = tested on: Acinetobacter baumannii; assay: Antibacterial activity against Acinetobacter baumannii ATCC 51432 assessed as inhibition in bacterial growth incubated for 20 to 24 hrs by CLSI based broth microdilution method; type: functional
[13] = tested on: Escherichia coli; assay: Antibacterial activity against Escherichia coli ATCC BAA-2340 assessed as inhibition in bacterial growth incubated for 20 to 24 hrs by CLSI based broth microdilution method; type: functional
[14] = tested on: Klebsiella pneumoniae; assay: Antibacterial activity against Klebsiella pneumoniae ATCC 700603 assessed as inhibition in bacterial growth incubated for 20 to 24 hrs by CLSI based broth microdilution method; type: functional
[15] = tested on: Pseudomonas aeruginosa; assay: Antibacterial activity against Pseudomonas aeruginosa ATCC 27853 assessed as inhibition in bacterial growth incubated for 20 to 24 hrs by CLSI based broth microdilution method; type: functional; details: time 20-24 hrs
[16] = molecular target: T1, hERG (KCNH2); assay: Inhibition of hERG potassium channel expressed in CHO cells at 10 uM by electrophysiological patch clamp assay relative to control; type: toxicity, cell-based; details: CHO cells expressing hERG
[17] = Inhibition of Escherichia coli topoisomerase 4 incubated for 120 mins by Transcreener ADP2 FI assay
[18] = tested on: Escherichia coli; assay: Antibacterial activity against Escherichia coli K-12 BW25113 deltaTolC assessed as inhibition in bacterial growth incubated for 20 to 24 hrs by CLSI based broth microdilution method; type: functional; details: time 20-24 hrs
[19] = tested on: Acinetobacter baumannii; assay: Antibacterial activity against Acinetobacter baumannii ATCC 19606 assessed as inhibition in bacterial growth incubated for 20 to 24 hrs by CLSI based broth microdilution method; type: functional; details: time 20-24 hrs
[20] = tested on: Pseudomonas aeruginosa; assay: Antibacterial activity against Pseudomonas aeruginosa NCTC 11451 assessed as inhibition in bacterial growth incubated for 20 to 24 hrs by CLSI based broth microdilution method; type: functional
[21] = tested on: Klebsiella pneumoniae; assay: Antibacterial activity against Klebsiella pneumoniae ATCC BAA-1705 assessed as inhibition in bacterial growth incubated for 20 to 24 hrs by CLSI based broth microdilution method; type: functional; details: time 20-24 hrs
[22] = tested on: Escherichia coli; assay: Antibacterial activity against Escherichia coli K-12 BW25113 assessed as inhibition in bacterial growth incubated for 20 to 24 hrs by CLSI based broth microdilution method; type: functional
[23] = tested on: Escherichia coli; assay: Antibacterial activity against Escherichia coli ATCC 25922 assessed as inhibition in bacterial growth incubated for 20 to 24 hrs by CLSI based broth microdilution method; type: functional; details: time 20-24 hrs
[24] = Pseudomonas aeruginosa, NCTC 13437, time 20-24 hrs, read-out: MIC
[25] = Klebsiella pneumoniae, ATCC BAA-2146, time 20-24 hrs, read-out: MIC
[26] = Acinetobacter baumannii, ATCC BAA-747, time 20-24 hrs, read-out: MIC
[27] = Escherichia coli, ATCC 35218, time 20-24 hrs, read-out: MIC
[28] = Staphylococcus aureus, ATCC BAA-1556, time 20-24 hrs, read-out: MIC
[29] = Acinetobacter baumannii, ATCC 51432, time 20-24 hrs, read-out: MIC
[30] = Escherichia coli, ATCC BAA-2340, time 20-24 hrs, read-out: MIC
[31] = Klebsiella pneumoniae, ATCC 700603, time 20-24 hrs, read-out: MIC
[32] = Pseudomonas aeruginosa, NCTC 11451, time 20-24 hrs, read-out: MIC
[33] = Escherichia coli, K-12 BW25113, time 20-24 hrs, read-out: MIC

| MIC [1] [µg/mL] | MIC [2, 24] [µg/mL] | MIC [4, 25] [µg/mL] | MIC [5, 26] [µg/mL] | MIC [8, 27] [µg/mL] | IC50 [9] [nM] | MIC [10, 28] [µg/mL] | MIC [11] [µg/mL] | MIC [12, 29] [µg/mL] | MIC [13, 30] [µg/mL] | MIC [14, 31] [µg/mL] | MIC [15] [µg/mL] | IC50 [17] [nM] | MIC [18] [µg/mL] | MIC [19] [µg/mL] | MIC [20, 32] [µg/mL] | MIC [21] [µg/mL] | MIC [22, 33] [µg/mL] | Compound | IC20 [6] [nM] | IC50 [7] [nM] | further results |
| --- | --- | --- | --- | --- | --- | --- | --- | --- | --- | --- | --- | --- | --- | --- | --- | --- | --- | --- | --- | --- | --- |
| 0.125 (≈ 0.241 µM) | 4 (≈ 7.71 µM) | 64 (≈ 123 µM) | 8 (≈ 15.4 µM) | 2 (≈ 3.86 µM) | 38 | 1 (≈ 1.93 µM) | 0.5 (≈ 0.964 µM) | 16 (≈ 30.9 µM) | 1 (≈ 1.93 µM) | 32 (≈ 61.7 µM) | 0.5 (≈ 0.964 µM) | 19 | ≤ 0.06 | 32 (≈ 61.7 µM) | 4 (≈ 7.71 µM) | 16 (≈ 30.9 µM) | 1 (≈ 1.93 µM) | N#Cc1cc(OCC2CNC2)cc2c1CC(CNCCC1CN(c3ccc4c(n3)NC(=O)CO4)C(=O)O1)C2 (configuration not stated) | > 10000 | > 20000 | inhibition at 1 µM [3]: < 1%; inhibition at 10 µM [16]: < 1%; MIC [23]: 2 µg/mL (≈ 3.86 µM) |
| – | – | – | – | – | – | – | – | – | – | – | – | – | – | – | – | – | – | C[C@H](C(=O)Nc1cc(F)c2c(c1)CC(CNCCC1CN(c3cnc4c(n3)NC(=O)CO4)C(=O)O1)C2)N(C)C (stereo in doubt; 2h) | – | 126000 | MIC ([2]; time 20-24 hrs): 4 µg/mL (≈ 7.39 µM); MIC ([5]; time 20-24 hrs): 0.125 µg/mL (≈ 0.231 µM); IC20 [7]: 55000 nM; MIC ([10]; time 20-24 hrs): 1 µg/mL (≈ 1.85 µM); MIC ([12]; time 20-24 hrs): 8 µg/mL (≈ 14.8 µM); MIC ([14]; time 20-24 hrs): 2 µg/mL (≈ 3.69 µM); MIC ([20]; time 20-24 hrs): 4 µg/mL (≈ 7.39 µM) |
| ≤ 0.06 | 2 (≈ 3.69 µM) | 8 (≈ 14.8 µM) | 0.25 (≈ 0.462 µM) | 0.125 (≈ 0.231 µM) | – | 1 (≈ 1.85 µM) | 0.25 (≈ 0.462 µM) | 8 (≈ 14.8 µM) | 0.125 (≈ 0.231 µM) | 2 (≈ 3.69 µM) | – | – | ≤ 0.06 | – | 4 (≈ 7.39 µM) | – | – | C[C@@H](C(=O)Nc1cc(F)c2c(c1)CC(CNCCC1CN(c3cnc4c(n3)NC(=O)CO4)C(=O)O1)C2)N(C)C (stereo in doubt; 2i) | 33000 | 105000 | MIC ([22]; time 20-24 hrs): <=0.06 ug ml-1 |
| – | – | – | – | – | 26 | – | – | – | – | – | – | 13 | – | – | – | – | – | C[C@H](C(=O)Nc1cc(F)c2c(c1)CC(CNCCC1CN(c3cnc4c(n3)NC(=O)CO4)C(=O)O1)C2)N(C)C (stereo in doubt; 2g) | – | 251000 | MIC ([4]; time 20-24 hrs): 8 µg/mL (≈ 14.8 µM); IC20 [7]: 81000 nM; MIC ([8]; time 20-24 hrs): 0.125 µg/mL (≈ 0.231 µM); MIC ([10]; time 20-24 hrs): 0.5 µg/mL (≈ 0.923 µM); MIC ([12]; time 20-24 hrs): 4 µg/mL (≈ 7.39 µM); MIC ([13]; time 20-24 hrs): 0.125 µg/mL (≈ 0.231 µM); MIC ([14]; time 20-24 hrs): 1 µg/mL (≈ 1.85 µM); MIC ([20]; time 20-24 hrs): 2 µg/mL (≈ 3.69 µM) |
| ≤ 0.06 | 0.5 (≈ 1.15 µM) | 4 (≈ 9.23 µM) | ≤ 0.06 | 0.125 (≈ 0.288 µM) | – | ≤ 0.06 | ≤ 0.06 | ≤ 0.06 | ≤ 0.06 | 1 (≈ 2.31 µM) | 0.5 (≈ 1.15 µM) | 4 | ≤ 0.06 | 0.125 (≈ 0.288 µM) | 1 (≈ 2.31 µM) | 1 (≈ 2.31 µM) | ≤ 0.06 | N#Cc1cccc2c1CC(CNCCC1CN(c3ccc4c(n3)NC(=O)CO4)C(=O)O1)C2 (configuration not stated) | 450 | – | inhibition at 1 µM [3]: 55%; inhibition at 10 µM [16]: 99%; MIC [23]: ≤ 0.06 µg/mL |
| > 64 | 64 (≈ 116 µM) | > 64 | > 64 | 32 (≈ 57.8 µM) | 1100 | > 64 | 64 (≈ 116 µM) | > 64 | 64 (≈ 116 µM) | > 64 | 64 (≈ 116 µM) | 150 | 1 (≈ 1.81 µM) | > 64 | > 64 | > 64 | 16 (≈ 28.9 µM) | CN(C(=O)CN1CCC1)c1cc(F)c2c(c1)CC(CNCCC1CN(c3cnc4c(n3)NC(=O)CO4)C(=O)O1)C2 (configuration not stated) | – | – | MIC [23]: 32 µg/mL (≈ 57.8 µM) |
